Laboratory results reported in a melting point compilation (Tetko et al.; mined from patent text by program, amines drawn as free bases though some values may be those of a salt).

| melting point | SMILES |
| --- | --- |
| 64 to 65 °C | CC#CC(O)(c1ccc(C)cc1C)c1ccc(C)cc1C |
| 207 to 209 °C | O=C(O)/C=C\C(=O)NCC(=O)N1c2ccccc2N(Cc2ccccc2)C(=O)[C@H]2CCC[C@H]21 (relative stereo) |
| 255 to 257 °C | Cc1c(F)c(F)cc2c1c(=O)c(C(=O)O)cn2-c1ccc(F)cc1 |
| 154 to 155 °C | CC(C)c1cccc(C(C)C)c1NC(=O)N(Cc1ccc(N(C)C)cc1)c1ccc(C(C)(C)C)cc1 |
| 189 to 192 °C | CCC(CC)(COc1nn2ncnc2cc1C)CS(N)(=O)=O |
| 208 °C | O=C(Nc1ccc2ccc(-c3cccc(F)c3)nc2n1)c1cccc(Br)c1 |
| > 300 °C | Cn1cnc2c(=O)[nH]c(N)nc21 |
| > 225 °C | COc1c(C(=O)O)csc1S(=O)(=O)Oc1ccc(-c2c3ccccc3c(Br)c3sc(C)c(C)c23)cc1C1CCCC1 |
| 160 to 161 °C | CCOC(=O)c1c(CS(=O)c2nc3ccccc3[nH]2)nc2cc(OC)c(OC)cc2c1-c1ccc(OC)c(OC)c1 (stereo not drawn) |
| 198 to 200 °C | CN1C(=O)C2(COc3cc4c(cc32)OCCO4)c2c(OCc3ccccc3)cccc21 (stereo not drawn) |
| 164 to 165 °C | O=c1cnn(-c2cc(Cl)c(Cc3ccc(Cc4ccccc4)cc3)c(Cl)c2)c(=O)[nH]1 |
| 106 to 107 °C | COc1cc(OC(F)F)nc(N)n1 |
| 222 to 224 °C | O=C1OC2(CCN(C(=O)Nc3cnc(-c4ccccc4)cn3)CC2)c2cc(F)ccc21 |
| 188 to 190 °C | Cc1ncc(C(=O)NCc2cc(C(F)(F)F)cc(C(F)(F)F)c2)c(-c2ccccc2)n1 |
| 56 to 58 °C | C/C(=C\CCC1(C)CCc2cc(O[Si](C)(C)C(C)(C)C)c(C)c(C)c2O1)CCl (stereo not drawn) |
| 204 to 209 °C | CSc1cc(C)c2ccc(N)nc2n1 |
| 204 to 205 °C | Cc1nnc(-c2ccc3occ(-c4cccc(C#N)c4)c3c2)o1 |
| 95 to 96 °C | Cc1nc(NC(=O)c2ccc(F)cc2Cl)sc1C(=O)NCc1ccccc1 |
| 168 to 172 °C | COc1cc(C)nc(NC(=O)NS(=O)(=O)c2cccc3c2C(Cl)=CC3)n1 |
| 198 to 199 °C | CC1(C(=O)c2c[nH]c3ncc(Br)nc23)CCCCC1 |
| 162 to 165 °C | O=C(O)C(Cc1ccsc1)N1C(=O)c2ccccc2C1=O (stereo not drawn) |

| melting point | SMILES |
| --- | --- |
| 130 to 131 °C | CCOc1ccnc(F)c1NC(=O)OC(C)(C)C |
| 149 to 150 °C | COc1ccc(C[N+](=O)[O-])c(C=CC[N+](=O)[O-])c1OCc1ccccc1 |
| 150 to 160 °C | C#Cc1cccc(Oc2ccc3c(c2)C(=O)N(c2cccc(C#C)c2)C3=O)c1 |
| 81 to 84 °C | CCc1n[nH]c(CC)c1Oc1cccc(C#N)c1 |
| 131 to 132 °C | CN(C)CCNC(=O)N1CCC(S(=O)(=O)c2ccc(Cl)cc2)C1 (stereo not drawn) |
| 83 to 84 °C | N#Cc1ccccc1CN1CCC(=O)C(C(c2ccc(F)cc2)c2ccc(F)cc2)C1 (stereo not drawn) |
| 172 to 173 °C | N#Cc1cccc(C(=O)Cn2cncn2)c1 |
| 183 to 184 °C | COc1cc(OC(C)(C)C(=O)O)c(-c2cccs2)cc1C=O |
| 45 °C | CCCCc1nc(Sc2ccccc2)c(CO)[nH]1 |
| 193 to 196 °C | OC(Cn1cncn1)(Cn1ncnc1C=Cc1ccc(Cl)cc1)c1ccc(Cl)cc1Cl (stereo not drawn) |
| 106 °C | O=C(O)c1ccc(CCNC(=O)C2Cc3ccccc3N2S(=O)(=O)c2ccc(-c3cccc(C(F)(F)F)c3)cc2)cc1 (stereo not drawn) |
| 186 to 187 °C | COc1ccc(S(=O)(=O)Oc2ccc3[nH]cc(C4CCN(C)CC4)c3c2)cc1 |
| 176 to 198 °C | COc1ccc(-c2c(Cl)ncn2-c2ccc(S(C)(=O)=O)cc2)c(F)c1 |
| 178 to 179 °C | N#Cc1cccc2c1CC(=NN)c1ccc(F)cc1S2 |
| 59 to 60 °C | CCOC(=O)c1c(C)nc(-c2ccccc2)nc1-c1cccc(C(F)(F)F)c1 |
| 195 to 197 °C | Cc1oc(-c2ccc(C(F)(F)F)cc2)nc1-c1ccc2c(Br)c(OC(Cc3ccccc3)C(=O)O)ccc2c1 (stereo not drawn) |
| 219 to 221 °C | O=C(NN1CCCCC1)c1cn(-c2ccc(Br)cc2)c(-c2ccc(Cl)cc2Cl)n1 |
| 119 to 120 °C | Cc1cccc(C)c1NC(=O)N=C1CCCN1C |
| 148 to 150 °C | CN1CCOc2cc(S(=O)(=O)n3c(COC(C)(C)C(=O)O)cc4cc(Cl)ccc43)ccc21 |
| 110 °C | CCCNC(=O)CCc1ccc2ccn(Cc3ccc(C(=O)NS(=O)(=O)c4ccccc4C)cc3OC)c2c1 |
| 125 to 128 °C | C#CCc1c(C)nc2c(NCc3c(C)cccc3NC(=O)OC)cc(NC(C)=O)cn12 |

| melting point | SMILES |
| --- | --- |
| 222 to 224 °C | CN1C(=O)Cn2cc(C(=O)NCc3ccc(F)cc3)c(=O)c3cc(CN4CCOCC4)cc1c32 |
| 182 to 184 °C | CC(C)(C)OC(=O)NNc1ccc(N2C(=O)C=CC2=O)cn1 |
| 134 to 136 °C | COc1cc(C(=O)Oc2cc(Cl)c(Cl)cc2Cl)ccc1Cc1cn(C)c2ccc([N+](=O)[O-])cc12 |
| 153 to 155 °C | CCOc1cc(C)c(Cl)cc1S(N)(=O)=O |
| 147 °C | O=C1CC(c2cccc(Cl)c2)c2cc(C(=O)c3ccc([N+](=O)[O-])cc3)ccc2N1 (stereo not drawn) |
| 98 to 100 °C | ClCCCCOc1ccccc1/C=C/c1nc2ccccc2s1 |
| 194 to 195 °C | CCCOc1ccc(S(=O)(=O)N2CCN(CCC)CC2)cc1-c1nc2cc3ncn(Cc4ccccc4)c3cc2c(=O)[nH]1 |
| 164 to 166 °C | Cc1cc2c(cc1C)OC(CCN1CCC3(CC1)CNC(=O)CO3)CO2 (stereo not drawn) |
| 141 to 142 °C | Cc1c(N)ccc2[nH]cc(CCCO)c12 |
| 180 to 185 °C | N#Cc1c(-c2ccc(Cl)cc2)[nH]c([N+](=O)[O-])c1Br |
| 61 to 65 °C | CN(C)C=NC1CCN(Cc2ccccc2)CC1 |
| 85 to 89 °C | O=C(Cl)c1ccc(Oc2ccc(Oc3ccccc3)cc2)cc1 |
| 113 to 119 °C | CCCNC(=O)c1c(N)cc(Cl)cc1Cl |
| 169 to 170 °C | CN(C)C=Nc1c(Cl)cc(N=Cc2ccc(C#N)cc2)cc1Cl |
| 180 °C | Cc1sc(S(=O)(=O)NC(C)(C)CO)cc1NC(=O)c1cnn2c(C(F)F)cc(-c3ccc(C(F)(F)F)cc3)nc12 |
| 175 °C | CC(C)(C)C(=O)C(C(Sc1ccccc1)c1ccc(F)cc1)n1cncn1 (stereo not drawn) |
| 139 to 140 °C | CCCCOc1c(CNC(=O)OC(C)(C)C)n(CC2CC2)c(=O)c2ccc(C(=O)OC)cc12 |
| 76 to 78 °C | OCCCCCCn1nc(-c2ccccc2)c(-c2ccccc2)c1-c1ccccc1 |
| 127 to 128 °C | O=C(O)c1ccsc1C(F)F |
| 117 °C | CN(C)NC(=O)N(OCc1ccccc1)C1c2ccccc2Oc2ccccc21 |
| 93 to 96 °C | CC(COc1ccc(CCO)cc1)NCC(O)c1ccccc1 (stereo not drawn) |

| SMILES | melting point |
| --- | --- |
| Cc1cc(-c2nc3ccccc3c(=O)n2-c2ccc(Cl)cc2)cc(C)c1OCCO | 101 to 103 °C |
| O=C(Cc1ccccc1)N1CCC2(c3cccc(O)c3)CCCC2C1 (stereo not drawn) | 135 to 137 °C |
| CCCCN1CC=C(c2c[nH]c3ccc(NS(C)(=O)=O)cc23)CC1 | 202 to 204 °C |
| N#Cc1ccc(N2CCC(F)C2)c2ccsc12 (stereo not drawn) | 151 to 152 °C |
| CN(C)C(=NS(=O)(=O)c1ccc(Cl)cc1)N1CC(c2ccccc2)C(c2ccc(Cl)cc2)=N1 (stereo not drawn) | 182 °C |
